Assay results as given in PubChem BioAssay (NCI).
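All cell lines were grown in 96-well plates and treated with compound for 48 hours. TGI: total growth inhibition.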

What was measured:
Test in all cases: DTP human tumour cell line panel, 48 h
786-0 renal = test system: 786-0 renal
A498 renal = test system: A498 renal
A549 NSCLC = test system: A549 NSCLC
ACHN renal = test system: ACHN renal
BT-549 breast = test system: BT-549 breast
CAKI-1 renal = test system: CAKI-1 renal
CCRF-CEM leukemia = test system: CCRF-CEM leukemia
COLO 205 colon = test system: COLO 205 colon
DU-145 prostate = test system: DU-145 prostate
EKVX NSCLC = test system: EKVX NSCLC
HCC-2998 colon = test system: HCC-2998 colon
HCT-116 colon = test system: HCT-116 colon
HCT-15 colon = test system: HCT-15 colon
HL-60(TB) leukemia = test system: HL-60(TB) leukemia
HOP-62 NSCLC = test system: HOP-62 NSCLC
HOP-92 NSCLC = test system: HOP-92 NSCLC
HS 578T breast = test system: HS 578T breast
HT29 colon = test system: HT29 colon
IGROV1 ovarian = test system: IGROV1 ovarian
K-562 leukemia = test system: K-562 leukemia
KM12 colon = test system: KM12 colon
LOX IMVI melanoma = test system: LOX IMVI melanoma
M14 melanoma = test system: M14 melanoma
MALME-3M melanoma = test system: MALME-3M melanoma
MCF7 breast = test system: MCF7 breast
MDA-MB-435 = test system: MDA-MB-435
MDA-N = test system: MDA-N
MOLT-4 leukemia = test system: MOLT-4 leukemia
NCI-H226 lung = test system: NCI-H226 lung
NCI-H23 lung = test system: NCI-H23 lung
NCI-H460 lung = test system: NCI-H460 lung
NCI-H522 lung = test system: NCI-H522 lung
NCI/ADR-RES ovarian = test system: NCI/ADR-RES ovarian
OVCAR-3 ovarian = test system: OVCAR-3 ovarian
OVCAR-4 ovarian = test system: OVCAR-4 ovarian
OVCAR-5 ovarian = test system: OVCAR-5 ovarian
OVCAR-8 ovarian = test system: OVCAR-8 ovarian
PC-3 prostate = test system: PC-3 prostate
RPMI-8226 leukemia = test system: RPMI-8226 leukemia
RXF 393 renal = test system: RXF 393 renal
SF-268 CNS = test system: SF-268 CNS
SF-295 CNS = test system: SF-295 CNS
SF-539 CNS = test system: SF-539 CNS
SK-MEL-2 melanoma = test system: SK-MEL-2 melanoma
SK-MEL-28 melanoma = test system: SK-MEL-28 melanoma
SK-MEL-5 melanoma = test system: SK-MEL-5 melanoma
SK-OV-3 ovarian = test system: SK-OV-3 ovarian
SN12C renal = test system: SN12C renal
SNB-19 CNS = test system: SNB-19 CNS
SNB-75 CNS = test system: SNB-75 CNS
SR leukemia = test system: SR leukemia
SW-620 colon = test system: SW-620 colon
T-47D breast = test system: T-47D breast
TK-10 renal = test system: TK-10 renal
U251 CNS = test system: U251 CNS
UACC-257 melanoma = test system: UACC-257 melanoma
UACC-62 melanoma = test system: UACC-62 melanoma
UO-31 renal = test system: UO-31 renal

CC(C)(C)SC1=CCC[C@@H](P(=O)(c2ccccc2)c2ccccc2)[C@@H]2CCC[C@@H]12
TGI (786-0 renal): 30.4 µM | TGI (A498 renal): 29.4 µM | TGI (A549 NSCLC): 35.2 µM | TGI (ACHN renal): 30.6 µM | TGI (BT-549 breast): 32.3 µM | TGI (CAKI-1 renal): 32.9 µM | TGI (CCRF-CEM leukemia): 60.6 µM | TGI (COLO 205 colon): 34.1 µM | TGI (DU-145 prostate): 39.8 µM | TGI (EKVX NSCLC): 33.7 µM | TGI (HCC-2998 colon): 29.9 µM | TGI (HCT-116 colon): 27.3 µM | TGI (HCT-15 colon): 33 µM | TGI (HL-60(TB) leukemia): 47.5 µM | TGI (HOP-62 NSCLC): 31.8 µM | TGI (HOP-92 NSCLC): 28.9 µM | TGI (HS 578T breast): 47.6 µM | TGI (HT29 colon): 28.3 µM | TGI (IGROV1 ovarian): 36 µM | TGI (K-562 leukemia): 51.6 µM | TGI (KM12 colon): 35.5 µM | TGI (LOX IMVI melanoma): 33.5 µM | TGI (M14 melanoma): 29.5 µM | TGI (MALME-3M melanoma): 36.3 µM | TGI (MCF7 breast): 31.1 µM | TGI (MDA-MB-435): 33.1 µM | TGI (MDA-N): 30.3 µM | TGI (MOLT-4 leukemia): 38.1 µM | TGI (NCI-H226 lung): 35.6 µM | TGI (NCI-H23 lung): 33.6 µM | TGI (NCI-H460 lung): 30.8 µM | TGI (NCI-H522 lung): 31.3 µM | TGI (NCI/ADR-RES ovarian): 35.1 µM | TGI (OVCAR-3 ovarian): 32.7 µM | TGI (OVCAR-4 ovarian): 31.4 µM | TGI (OVCAR-5 ovarian): 27.1 µM | TGI (OVCAR-8 ovarian): 39.2 µM | TGI (PC-3 prostate): 28.6 µM | TGI (RPMI-8226 leukemia): 41.9 µM | TGI (RXF 393 renal): 29.9 µM | TGI (SF-268 CNS): 35.5 µM | TGI (SF-295 CNS): 29 µM | TGI (SF-539 CNS): 36.5 µM | TGI (SK-MEL-2 melanoma): 31.8 µM | TGI (SK-MEL-28 melanoma): 54.6 µM | TGI (SK-MEL-5 melanoma): 32.8 µM | TGI (SK-OV-3 ovarian): 33.8 µM | TGI (SN12C renal): 29.3 µM | TGI (SNB-19 CNS): 30.9 µM | TGI (SNB-75 CNS): 26.5 µM | TGI (SR leukemia): 43.6 µM | TGI (SW-620 colon): 85.3 µM | TGI (T-47D breast): 33.3 µM | TGI (TK-10 renal): 32.3 µM | TGI (U251 CNS): 33.3 µM | TGI (UACC-257 melanoma): 31.8 µM | TGI (UACC-62 melanoma): 24.9 µM | TGI (UO-31 renal): 30.2 µM
